Data as given in ChEMBL document CHEMBL1201862, “PubChem BioAssay data set” (2004).
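Following 48 hours of exposure in 96-well plates, responses at five concentrations were used to interpolate endpoints linearly. GI50 marks 50% less growth.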 Activity calls are given as the source filed them. Rule as the data show it: active = GI50 up to about 1.1 µM and inactive = higher.

Tests used:
Experiment in all cases: NCI anticancer screen, dose series, 48 h
786-0 = tested on: 786-0
A498 = tested on: A498
CAKI-1 = tested on: CAKI-1
EKVX = tested on: EKVX
HCC 2998 = tested on: HCC 2998
HCT-15 = tested on: HCT-15
K562 = tested on: K562
LOX IMVI = tested on: LOX IMVI
NCI-H522 = tested on: NCI-H522
OVCAR-4 = tested on: OVCAR-4
OVCAR-8 = tested on: OVCAR-8
RPMI-8226 = tested on: RPMI-8226
SK-MEL-2 = tested on: SK-MEL-2
SK-OV-3 = tested on: SK-OV-3
TK-10 = tested on: TK-10
U-251 = tested on: U-251
UO-31 = tested on: UO-31
DU-145 = tested on: DU-145
PC-3 = tested on: PC-3
NCI/ADR-RES = tested on: NCI/ADR-RES

Compound | GI50 (786-0) | GI50 (A498) | GI50 (CAKI-1) | GI50 (EKVX) | GI50 (HCC 2998) | GI50 (HCT-15) | GI50 (K562) | GI50 (LOX IMVI) | GI50 (NCI-H522) | GI50 (OVCAR-4) | GI50 (OVCAR-8) | GI50 (RPMI-8226) | GI50 (SK-MEL-2) | GI50 (SK-OV-3) | GI50 (TK-10) | GI50 (U-251) | GI50 (UO-31) | GI50 (DU-145) | GI50 (PC-3) | GI50 (NCI/ADR-RES)
COC(=O)CCC1=NOC(CC2CC(CCC(=O)OC)=NO2)C1 (configuration not stated) | > 100 µM (inactive) | > 100 µM (inactive) | > 100 µM (inactive) | > 100 µM (inactive) | > 100 µM (inactive) | > 100 µM | > 100 µM (inactive) | > 100 µM (inactive) | > 100 µM (inactive) | > 100 µM (inactive) | > 100 µM (inactive) | > 100 µM (inactive) | > 100 µM (inactive) | > 100 µM (inactive) | > 100 µM (inactive) | > 100 µM (inactive) | > 100 µM (inactive) | – | – | –
CN(C(=O)c1cccs1)C(=S)N1CCN(c2ccccc2)CC1 | > 100 µM (inactive) | – | – | – | > 100 µM (inactive) | > 100 µM | > 100 µM (inactive) | > 100 µM (inactive) | > 100 µM (inactive) | > 100 µM (inactive) | > 100 µM (inactive) | 52.2 µM (inactive) | > 100 µM (inactive) | – | > 100 µM (inactive) | > 100 µM (inactive) | > 100 µM (inactive) | > 100 µM (inactive) | – | –
Cc1nc2c(o1)C(=O)c1ccccc1/C2=N\c1ccccc1 | 8.38 µM (inactive) | > 10 µM (inactive) | 17.9 µM (inactive) | 5.78 µM (inactive) | 15.2 µM (inactive) | 2.25 µM | 2.62 µM (inactive) | 1.59 µM (inactive) | 1.86 µM (inactive) | 2.4 µM (inactive) | 2 µM (inactive) | 1.97 µM (inactive) | 1.46 µM (inactive) | 17.4 µM (inactive) | 20.7 µM (inactive) | 1.76 µM (inactive) | 2.98 µM (inactive) | 1.74 µM (inactive) | 2.03 µM (inactive) | –
O=C1NC(=O)c2c1n(Cc1ccccc1)c(=O)n2Cc1ccccc1 | > 100 µM (inactive) | 30.4 µM (inactive) | > 100 µM (inactive) | > 100 µM (inactive) | > 100 µM (inactive) | 77.8 µM | 35.8 µM (inactive) | > 100 µM (inactive) | > 100 µM (inactive) | > 100 µM (inactive) | > 100 µM (inactive) | 53.2 µM (inactive) | > 100 µM (inactive) | > 100 µM (inactive) | 96.6 µM (inactive) | > 100 µM (inactive) | > 100 µM (inactive) | – | – | –
O=C1NC(=S)NC(=O)C1=Cc1ccc[nH]1 | 10.6 µM (inactive) | 35.2 µM (inactive) | 11.2 µM (inactive) | 24 µM (inactive) | 11.8 µM (inactive) | 2.87 µM | 11.2 µM (inactive) | 9.06 µM (inactive) | 1.87 µM (inactive) | 15.3 µM (inactive) | 4.71 µM (inactive) | 3.41 µM (inactive) | 19.7 µM (inactive) | > 100 µM (inactive) | 17.4 µM (inactive) | 27.1 µM (inactive) | 16.6 µM (inactive) | – | – | –
Cn1c(=O)sc2cc(C(=S)N3CCC(Cc4ccccc4)CC3)ccc21 | > 100 µM (inactive) | > 100 µM (inactive) | 61.5 µM (inactive) | 9.42 µM (inactive) | – | 99.5 µM | 34.9 µM (inactive) | 58.5 µM (inactive) | – | – | 20.1 µM (inactive) | 9.89 µM (inactive) | > 100 µM (inactive) | 58.5 µM (inactive) | > 100 µM (inactive) | 16.2 µM (inactive) | – | 84.5 µM (inactive) | 37.9 µM (inactive) | 21.4 µM (inactive)
CC1=NOC2(C1)/C(=N/O)CCC/C2=N\O (configuration not stated) | > 100 µM (inactive) | – | > 100 µM (inactive) | > 100 µM (inactive) | > 100 µM (inactive) | > 100 µM | > 100 µM (inactive) | > 100 µM (inactive) | > 100 µM (inactive) | > 100 µM (inactive) | > 100 µM (inactive) | > 100 µM (inactive) | > 100 µM (inactive) | > 100 µM (inactive) | > 100 µM (inactive) | > 100 µM (inactive) | > 100 µM (inactive) | – | > 100 µM (inactive) | > 100 µM (inactive)
C=C(C[N+](C)(C)C)N/N=C/c1oc(-c2ccc(OC)c(OC)c2)c(-c2ccc(OC)c(OC)c2)c1[N+](=O)[O-] | 17.6 µM (inactive) | 28.6 µM (inactive) | 32.6 µM (inactive) | > 100 µM (inactive) | 19.3 µM (inactive) | 17.9 µM | 19.1 µM (inactive) | 15 µM (inactive) | 23.2 µM (inactive) | 18.5 µM (inactive) | 15.8 µM (inactive) | 14.6 µM (inactive) | 16.7 µM (inactive) | 30.3 µM (inactive) | 22.4 µM (inactive) | 19.5 µM (inactive) | 18.9 µM (inactive) | 34.1 µM (inactive) | – | –
COC(=O)c1c(O)ccc(O)c1C(C(C)=O)C(C)=O | > 100 µM (inactive) | > 100 µM (inactive) | > 100 µM (inactive) | > 100 µM (inactive) | > 100 µM (inactive) | > 100 µM | > 100 µM (inactive) | > 100 µM (inactive) | 45.9 µM (inactive) | > 100 µM (inactive) | > 100 µM (inactive) | > 100 µM (inactive) | > 100 µM (inactive) | > 100 µM (inactive) | > 100 µM (inactive) | > 100 µM (inactive) | > 100 µM (inactive) | – | – | –
CNc1nnc(CCCCCCCCc2nnc(NC)o2)o1 | 21.1 µM (inactive) | > 100 µM (inactive) | 14.8 µM (inactive) | > 100 µM (inactive) | – | 27.8 µM | 31.9 µM (inactive) | 16.4 µM (inactive) | – | > 100 µM (inactive) | 34.8 µM (inactive) | – | > 100 µM (inactive) | > 100 µM (inactive) | > 100 µM (inactive) | 22.2 µM (inactive) | > 100 µM (inactive) | > 100 µM (inactive) | > 100 µM (inactive) | > 100 µM (inactive)
CCCC(=O)OC1=C(c2ccccc2)Sc2ccccc2-n2cccc21 | > 10 µM (inactive) | – | > 10 µM (inactive) | > 10 µM (inactive) | > 10 µM (inactive) | > 10 µM | > 10 µM (inactive) | > 10 µM (inactive) | – | > 10 µM (inactive) | > 10 µM (inactive) | > 10 µM (inactive) | – | > 10 µM (inactive) | > 10 µM (inactive) | – | – | > 10 µM (inactive) | > 10 µM (inactive) | –
O=c1c(Cc2ccccc2)c(-c2ccccc2)[nH]n1C1=NCCN1 | 37.3 µM (inactive) | > 100 µM (inactive) | 72.1 µM (inactive) | 39.1 µM (inactive) | – | 7.74 µM | 53.5 µM (inactive) | 15.5 µM (inactive) | 40.5 µM (inactive) | 54.2 µM (inactive) | 40 µM (inactive) | 47 µM (inactive) | 28.4 µM (inactive) | > 100 µM (inactive) | 37.6 µM (inactive) | 33.6 µM (inactive) | 42.6 µM (inactive) | – | 36.8 µM (inactive) | 27.7 µM (inactive)
